Data taken from PubChem BioAssay (NCI).
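Method: 48-hour compound exposure of cells in 96-well plates, five concentrations, linear interpolation of endpoints. TGI denotes the concentration required for complete inhibition of growth.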

How the values were obtained:
Assay in all cases: NCI tumour cell line growth inhibition, 48 h
SNB-78 CNS = system: SNB-78 CNS
SK-MEL-5 melanoma = system: SK-MEL-5 melanoma
OVCAR-4 ovarian = system: OVCAR-4 ovarian
SK-OV-3 ovarian = system: SK-OV-3 ovarian
KM12 colon = system: KM12 colon
SR leukemia = system: SR leukemia
SNB-19 CNS = system: SNB-19 CNS
ACHN renal = system: ACHN renal
IGROV1 ovarian = system: IGROV1 ovarian
NCI-H460 lung = system: NCI-H460 lung
K-562 leukemia = system: K-562 leukemia
LOX IMVI melanoma = system: LOX IMVI melanoma
U251 CNS = system: U251 CNS
HCC-2998 colon = system: HCC-2998 colon
A549 NSCLC = system: A549 NSCLC
OVCAR-5 ovarian = system: OVCAR-5 ovarian
MALME-3M melanoma = system: MALME-3M melanoma
NCI-H23 lung = system: NCI-H23 lung
LXFL 529 NSCLC = system: LXFL 529 NSCLC
KM20L2 colon = system: KM20L2 colon
HCT-15 colon = system: HCT-15 colon
HT29 colon = system: HT29 colon
CCRF-CEM leukemia = system: CCRF-CEM leukemia
SN12C renal = system: SN12C renal
HCT-116 colon = system: HCT-116 colon
RPMI-8226 leukemia = system: RPMI-8226 leukemia
M14 melanoma = system: M14 melanoma
UACC-62 melanoma = system: UACC-62 melanoma
SW-620 colon = system: SW-620 colon
786-0 renal = system: 786-0 renal
CAKI-1 renal = system: CAKI-1 renal
SF-268 CNS = system: SF-268 CNS
A498 renal = system: A498 renal
SNB-75 CNS = system: SNB-75 CNS
SF-539 CNS = system: SF-539 CNS
UACC-257 melanoma = system: UACC-257 melanoma
SF-295 CNS = system: SF-295 CNS
SK-MEL-28 melanoma = system: SK-MEL-28 melanoma
OVCAR-8 ovarian = system: OVCAR-8 ovarian
HOP-92 NSCLC = system: HOP-92 NSCLC
MOLT-4 leukemia = system: MOLT-4 leukemia
DLD-1 colon = system: DLD-1 colon
EKVX NSCLC = system: EKVX NSCLC
SK-MEL-2 melanoma = system: SK-MEL-2 melanoma
DMS 114 small cell lung = system: DMS 114 small cell lung
UO-31 renal = system: UO-31 renal
TK-10 renal = system: TK-10 renal
HL-60(TB) leukemia = system: HL-60(TB) leukemia
RXF 393 renal = system: RXF 393 renal
DU-145 prostate = system: DU-145 prostate
PC-3 prostate = system: PC-3 prostate
HS 578T breast = system: HS 578T breast
MDA-N = system: MDA-N
OVCAR-3 ovarian = system: OVCAR-3 ovarian
T-47D breast = system: T-47D breast
MCF7 breast = system: MCF7 breast
HOP-62 NSCLC = system: HOP-62 NSCLC
NCI-H522 lung = system: NCI-H522 lung
MDA-MB-435 = system: MDA-MB-435
NCI/ADR-RES ovarian = system: NCI/ADR-RES ovarian
BT-549 breast = system: BT-549 breast
COLO 205 colon = system: COLO 205 colon
NCI-H226 lung = system: NCI-H226 lung
MDA-MB-231 breast = system: MDA-MB-231 breast

Measured: TGI

c1ccc(C2(c3ccccc3)SSC3(S2)C2CC4CC(C2)CC3C4)cc1 (stereo not drawn)
not listed: DU-145 prostate | PC-3 prostate | HS 578T breast | MDA-N | OVCAR-3 ovarian | T-47D breast | MCF7 breast | HOP-62 NSCLC | NCI-H522 lung | MDA-MB-435 | NCI/ADR-RES ovarian | BT-549 breast | COLO 205 colon | NCI-H226 lung | MDA-MB-231 breast
> 100 µM: all other assays above

CCn1cc(C(=O)O)c(=O)c2cc(F)c(N3CCN(CN4C(=O)/C(=N\c5ncc(Cc6cc(OC)c(OC)c(OC)c6)c(N)n5)c5cc(Cl)ccc54)CC3)cc21
not listed: SNB-78 CNS | LXFL 529 NSCLC | KM20L2 colon | DLD-1 colon | DMS 114 small cell lung
> 100 µM: all other assays above
